From patent US9618509B2 (priority 2007, dated 2017)

Key:
[1] = system: PBMC isolated from M. bovis-infected cattle; assay type: cell-based
[2] = system: PBMC isolated from M. bovis-infected cattle; assay type: cell-based; remark: listed apart in the source
[3] = system: M. bovis infected cattle; settings: Mustafa et al., 2006, cited from earlier work

For “RIAAKIYSEA DEAWRKAIDG (RIAAKIYSEADEAWRKAIDG; fragment of full length protein) [SEQ ID NO: 12]”, the “intracellular IFN-γ production” value [1] was “Markedly higher levels of IFN-γ”.

In the case of “VYLTAHNALG SSLHTAGVDL (VYLTAHNALGSSLHTAGVDL; fragment of full length protein) [SEQ ID NO: 9]”, the “intracellular IFN-γ production” value [1] is reported as “Markedly higher levels of IFN-γ”.

With “GVDLAKSLRI AAKIYSEADE (GVDLAKSLRIAAKIYSEADE; fragment of full length protein) [SEQ ID NO: 11]” the “recognition / response in ELISPOT (cattle responding of the three tested)” value [2] was “a response was recorded”, the “dead cells in the sample” value [1] was greater than 64% and the “intracellular IFN-γ production” value [1] was “no IFN-γ response”.

With “LGSSLHTAGV DLAKSLRIAA (LGSSLHTAGVDLAKSLRIAA; fragment of full length protein) [SEQ ID NO: 10]” the “intracellular IFN-γ production” value [1] was “Markedly higher levels of IFN-γ”.

For “Rv3616c: product of the first gene of the Rv3616c-Rv3612c operon, a dominant mycobacterial antigen (Mustafa et al., 2006)”, the “vaccinated individuals that respond” value ([3]; BCG vaccinated) is given as 40% and the “frequency of recognition in M. bovis infected cattle” value [3] is given as 84.6%.

For “AKIYSEADEA WRKAIDGLFT (AKIYSEADEAWRKAIDGLFT; fragment of full length protein) [SEQ ID NO: 13]”, the “average spot-forming units (SFU)” value [2] was 509 SFU per 10^6 PBMC, the “recognition / response in ELISPOT (cattle responding of the three tested)” value [2] was “all three” and the “intracellular IFN-γ production” value [1] was “Markedly higher levels of IFN-γ”.
